Test results reported in ChEMBL document CHEMBL1201862, “PubChem BioAssay data set” (2004).
Calls of active or inactive are those of the source.

Tests used:
[1] = target: Luciferin 4-monooxygenase (Photinus pyralis, UniProt P08659); experiment: Counter Screen for Luciferase-based Assay Positives. [Related pubchem assays: 620, 618, 411 ]
[2] = test system: HT-1080; experiment: cytotoxicity in HT1080 fibrosarcoma cells, cell-based, fluorescence readout (AID 620); assay type: functional; conditions: Homo sapiens
[3] = target: Mothers against decapentaplegic homolog 3 (Homo sapiens, UniProt P84022); experiment: Smad3 binding inhibitors, lysate ELISA, dose response, cell lysate, secondary confirmation, chemiluminescent ELISA, HEK293 lysate (AID 1058); assay type: functional
[4] = HEp-2 cell cytotoxicity, dose response, cytotoxicity control for RSV inhibitor project, HTS (AID 2410); assay type: functional; conditions: human respiratory syncytial virus
[5] = test system: HeLa; experiment: Cytotoxicity counterscreen assay for transcriptional activators of heat shock protein 70 (Hsp70). [Related pubchem assays: 1203, 1252 ]; assay type: functional; conditions: Homo sapiens;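 further: cells exposed to compound for 16 hours before readout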
[6] = target: T1, Voltage-gated N-type calcium channel alpha-1B subunit/Amyloid beta A4 precursor protein-binding family A member 1 (Homo sapiens, UniProt Q00975+Q02410); assay type: protein assay
T1 sequence (Q00975 whole entry): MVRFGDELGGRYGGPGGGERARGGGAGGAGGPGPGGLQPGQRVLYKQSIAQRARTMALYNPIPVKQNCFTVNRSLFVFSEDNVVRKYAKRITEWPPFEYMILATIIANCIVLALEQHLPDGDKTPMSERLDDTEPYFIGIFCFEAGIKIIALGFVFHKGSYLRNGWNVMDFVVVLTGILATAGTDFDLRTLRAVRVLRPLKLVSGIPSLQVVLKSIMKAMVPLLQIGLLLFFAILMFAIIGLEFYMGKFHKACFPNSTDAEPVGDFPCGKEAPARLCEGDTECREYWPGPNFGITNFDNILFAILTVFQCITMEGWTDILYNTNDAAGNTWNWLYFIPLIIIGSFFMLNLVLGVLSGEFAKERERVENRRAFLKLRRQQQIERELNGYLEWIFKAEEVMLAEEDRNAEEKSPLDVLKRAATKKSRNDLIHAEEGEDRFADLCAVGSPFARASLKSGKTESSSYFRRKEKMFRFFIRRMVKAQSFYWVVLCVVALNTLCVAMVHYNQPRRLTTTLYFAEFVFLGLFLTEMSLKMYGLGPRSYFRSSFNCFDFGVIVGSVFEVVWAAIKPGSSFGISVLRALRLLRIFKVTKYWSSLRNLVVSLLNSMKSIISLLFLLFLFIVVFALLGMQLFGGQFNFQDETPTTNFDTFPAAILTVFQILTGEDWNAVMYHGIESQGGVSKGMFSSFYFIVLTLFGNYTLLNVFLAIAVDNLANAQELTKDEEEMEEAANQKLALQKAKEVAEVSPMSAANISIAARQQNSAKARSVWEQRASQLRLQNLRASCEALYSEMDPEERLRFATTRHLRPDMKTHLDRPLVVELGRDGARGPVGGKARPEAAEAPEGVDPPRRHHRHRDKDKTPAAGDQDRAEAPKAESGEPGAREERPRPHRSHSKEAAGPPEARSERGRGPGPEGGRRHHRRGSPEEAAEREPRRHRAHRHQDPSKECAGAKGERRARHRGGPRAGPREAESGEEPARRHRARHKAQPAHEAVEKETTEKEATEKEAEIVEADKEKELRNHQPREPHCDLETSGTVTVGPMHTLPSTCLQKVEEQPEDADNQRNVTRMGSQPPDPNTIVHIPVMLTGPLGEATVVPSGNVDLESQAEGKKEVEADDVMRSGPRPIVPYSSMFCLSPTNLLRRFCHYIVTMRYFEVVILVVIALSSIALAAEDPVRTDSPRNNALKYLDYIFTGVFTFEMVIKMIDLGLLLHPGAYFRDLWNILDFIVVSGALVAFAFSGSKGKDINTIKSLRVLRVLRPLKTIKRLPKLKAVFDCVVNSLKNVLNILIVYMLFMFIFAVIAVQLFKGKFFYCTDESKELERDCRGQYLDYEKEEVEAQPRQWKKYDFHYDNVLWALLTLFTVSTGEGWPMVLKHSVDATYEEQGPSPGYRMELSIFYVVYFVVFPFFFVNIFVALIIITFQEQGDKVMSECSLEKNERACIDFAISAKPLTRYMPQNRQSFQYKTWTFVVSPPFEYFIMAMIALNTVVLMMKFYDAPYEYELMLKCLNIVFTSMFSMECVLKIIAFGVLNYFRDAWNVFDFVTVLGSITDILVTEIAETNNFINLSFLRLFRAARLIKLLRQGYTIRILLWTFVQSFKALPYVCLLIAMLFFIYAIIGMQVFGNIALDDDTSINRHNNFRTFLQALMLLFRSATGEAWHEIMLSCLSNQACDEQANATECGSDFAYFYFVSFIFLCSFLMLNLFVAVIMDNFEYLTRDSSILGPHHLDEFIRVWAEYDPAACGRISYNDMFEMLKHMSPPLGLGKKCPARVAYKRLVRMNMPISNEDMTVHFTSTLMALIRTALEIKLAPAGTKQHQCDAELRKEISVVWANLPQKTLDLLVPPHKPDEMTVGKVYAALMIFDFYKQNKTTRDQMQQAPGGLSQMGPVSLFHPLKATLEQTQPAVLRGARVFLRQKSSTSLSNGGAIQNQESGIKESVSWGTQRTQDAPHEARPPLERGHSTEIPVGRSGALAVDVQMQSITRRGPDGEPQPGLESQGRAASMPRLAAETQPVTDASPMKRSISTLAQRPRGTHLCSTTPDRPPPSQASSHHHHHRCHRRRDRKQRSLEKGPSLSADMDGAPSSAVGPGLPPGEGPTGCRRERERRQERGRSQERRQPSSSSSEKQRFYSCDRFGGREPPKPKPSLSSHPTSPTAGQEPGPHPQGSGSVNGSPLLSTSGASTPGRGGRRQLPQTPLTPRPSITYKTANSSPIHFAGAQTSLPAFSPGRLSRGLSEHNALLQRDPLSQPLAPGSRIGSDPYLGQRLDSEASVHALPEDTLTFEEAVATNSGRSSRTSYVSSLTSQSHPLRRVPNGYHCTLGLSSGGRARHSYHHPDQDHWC
T1 sequence (Q02410 whole entry): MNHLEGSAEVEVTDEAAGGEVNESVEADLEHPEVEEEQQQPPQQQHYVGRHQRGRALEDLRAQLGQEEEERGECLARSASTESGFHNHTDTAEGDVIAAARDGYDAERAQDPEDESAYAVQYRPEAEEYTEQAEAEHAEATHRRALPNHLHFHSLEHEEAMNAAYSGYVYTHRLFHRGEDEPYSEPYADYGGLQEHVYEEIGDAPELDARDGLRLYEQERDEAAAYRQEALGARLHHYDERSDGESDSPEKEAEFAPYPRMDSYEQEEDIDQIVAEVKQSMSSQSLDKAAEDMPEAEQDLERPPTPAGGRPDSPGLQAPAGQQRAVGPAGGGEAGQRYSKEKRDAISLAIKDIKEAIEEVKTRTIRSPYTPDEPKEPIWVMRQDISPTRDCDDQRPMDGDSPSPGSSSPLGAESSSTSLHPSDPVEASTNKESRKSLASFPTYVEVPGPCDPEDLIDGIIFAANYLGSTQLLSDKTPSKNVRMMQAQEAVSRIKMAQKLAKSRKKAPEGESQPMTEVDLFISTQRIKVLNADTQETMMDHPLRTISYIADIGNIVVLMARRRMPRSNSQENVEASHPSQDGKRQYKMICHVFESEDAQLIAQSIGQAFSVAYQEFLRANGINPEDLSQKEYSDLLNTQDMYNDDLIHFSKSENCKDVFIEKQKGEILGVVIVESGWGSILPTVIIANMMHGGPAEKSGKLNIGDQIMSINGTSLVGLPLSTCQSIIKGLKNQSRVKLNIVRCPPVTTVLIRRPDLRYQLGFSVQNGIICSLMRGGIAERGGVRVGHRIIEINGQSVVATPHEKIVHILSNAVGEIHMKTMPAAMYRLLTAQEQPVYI

[7] = target: T1, Voltage-gated N-type calcium channel alpha-1B subunit/Amyloid beta A4 precursor protein-binding family A member 1; assay type: protein assay; remark: listed apart in the source
[8] = inhibitors of intracellular T. cruzi replication, confirmation, NIH3T3 host cells, beta-gal luminescence (AID 2044); assay type: functional, cell-based;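 further: intracellular parasites grown in NIH/3T3 mouse fibroblasts as host cells; luminescent beta-galactosidase reporter signal from transgenic T. cruzi replicating inside host cells; inhibitors lower the luminescence signal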
[9] = cytotoxicity toward NIH3T3 fibroblasts, dose response, counter-screen, cell-based, ATP luminescence, mouse fibroblasts (AID 2010); assay type: functional;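 further: cells exposed to compound for about 90 hours before reading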
[10] = target: Heat shock protein HSP 90-alpha (Homo sapiens, UniProt P07900); assay type: functional, organism-based
[11] = test system: INS1; experiment: beta cell apoptosis inhibitors, cytokine rescue, dose response, luminescence, retest (AID 449756); assay type: functional, cell-based; conditions: Rattus norvegicus;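 further: cell death triggered by IL-1 beta plus TNF-alpha plus IFN-gamma mixture; protective hits raise ATP signal compared with cytokine alone wells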
[12] = target: T2, Eukaryotic translation initiation factor 2-alpha kinase 3 (Homo sapiens, UniProt Q9NZJ5); experiment: Dose response cell-based high-throughput screening assay to measure PERK inhibition. [Related pubchem assays: 1416 ]; assay type: functional
T2 sequence (Q9NZJ5 whole entry): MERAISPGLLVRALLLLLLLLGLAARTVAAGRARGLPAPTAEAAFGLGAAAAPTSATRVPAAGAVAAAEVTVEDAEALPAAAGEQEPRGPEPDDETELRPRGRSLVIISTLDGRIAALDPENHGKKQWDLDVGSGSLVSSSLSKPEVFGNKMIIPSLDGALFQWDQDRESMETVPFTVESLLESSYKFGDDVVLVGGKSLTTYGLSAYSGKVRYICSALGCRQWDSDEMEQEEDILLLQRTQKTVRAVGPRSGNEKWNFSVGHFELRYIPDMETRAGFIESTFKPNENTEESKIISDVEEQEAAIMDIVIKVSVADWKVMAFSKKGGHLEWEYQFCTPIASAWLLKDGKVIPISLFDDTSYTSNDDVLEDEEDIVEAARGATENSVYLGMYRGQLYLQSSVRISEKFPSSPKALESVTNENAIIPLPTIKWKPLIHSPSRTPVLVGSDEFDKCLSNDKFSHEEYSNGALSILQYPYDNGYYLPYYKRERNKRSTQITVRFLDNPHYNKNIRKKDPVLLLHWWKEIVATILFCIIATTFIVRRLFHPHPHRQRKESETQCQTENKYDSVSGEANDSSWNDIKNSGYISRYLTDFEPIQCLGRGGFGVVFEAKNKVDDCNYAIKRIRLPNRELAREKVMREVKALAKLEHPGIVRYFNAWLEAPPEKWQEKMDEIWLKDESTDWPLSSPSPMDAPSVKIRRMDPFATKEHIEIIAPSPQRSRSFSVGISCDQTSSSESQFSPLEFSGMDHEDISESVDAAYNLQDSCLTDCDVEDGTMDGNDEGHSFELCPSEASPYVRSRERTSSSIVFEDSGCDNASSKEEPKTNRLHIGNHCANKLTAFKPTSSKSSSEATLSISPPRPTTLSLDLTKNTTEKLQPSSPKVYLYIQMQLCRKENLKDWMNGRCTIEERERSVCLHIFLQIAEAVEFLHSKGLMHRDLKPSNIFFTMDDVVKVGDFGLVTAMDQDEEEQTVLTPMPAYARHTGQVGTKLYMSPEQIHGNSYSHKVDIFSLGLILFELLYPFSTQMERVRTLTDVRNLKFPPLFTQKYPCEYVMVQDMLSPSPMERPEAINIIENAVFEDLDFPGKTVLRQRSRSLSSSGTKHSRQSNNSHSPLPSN

[13] = target: T2, Eukaryotic translation initiation factor 2-alpha kinase 3; experiment: Counterscreen assay for PERK inhibitors: Dose response cell-based high throughput screening assay to measure inhibition of PERK at 6 hours. [Related pubchem assays: 1522, 1416 ]; assay type: functional
[14] = target: Eukaryotic translation initiation factor 4H (Homo sapiens, UniProt Q15056); experiment: human eIF4H binding inhibitors, primary screen, translation initiation inhibitor project, biochemical, uHTS, fluorescence polarization (AID 2012)
[15] = target: Polyadenylate-binding protein 1 (Homo sapiens, UniProt P11940); experiment: PABP poly(A) RNA binding inhibitors, primary screen, biochemical, fluorescence polarization, uHTS (AID 2014)
[16] = target: T3, Alkaline phosphatase, tissue-nonspecific isozyme (Homo sapiens, UniProt P05186)
T3 sequence (P05186 whole entry): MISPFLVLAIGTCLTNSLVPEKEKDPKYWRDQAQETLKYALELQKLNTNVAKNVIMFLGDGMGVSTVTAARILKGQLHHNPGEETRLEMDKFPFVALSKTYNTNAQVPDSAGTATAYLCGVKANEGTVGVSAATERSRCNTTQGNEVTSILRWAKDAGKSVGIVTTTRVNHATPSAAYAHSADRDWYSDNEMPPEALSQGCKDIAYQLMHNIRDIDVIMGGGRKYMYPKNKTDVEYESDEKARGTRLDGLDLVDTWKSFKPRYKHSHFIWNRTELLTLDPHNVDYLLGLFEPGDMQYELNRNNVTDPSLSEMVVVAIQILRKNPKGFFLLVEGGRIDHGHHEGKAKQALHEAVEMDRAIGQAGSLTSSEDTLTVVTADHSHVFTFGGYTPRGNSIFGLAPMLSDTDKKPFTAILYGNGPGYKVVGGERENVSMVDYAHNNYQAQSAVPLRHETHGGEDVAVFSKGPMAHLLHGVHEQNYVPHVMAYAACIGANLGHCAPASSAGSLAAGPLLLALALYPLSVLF

[17] = target: T4, Probable nicotinate-nucleotide adenylyltransferase (Staphylococcus aureus (strain N315), UniProt P65502); assay type: functional, Staphylococcus aureus subsp. aureus N315;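 on IC50 Mean: confirmatory dose-response retesting of NadD inhibitor hits first found in an ultra-high-throughput screen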
T4 sequence (P65502 whole entry): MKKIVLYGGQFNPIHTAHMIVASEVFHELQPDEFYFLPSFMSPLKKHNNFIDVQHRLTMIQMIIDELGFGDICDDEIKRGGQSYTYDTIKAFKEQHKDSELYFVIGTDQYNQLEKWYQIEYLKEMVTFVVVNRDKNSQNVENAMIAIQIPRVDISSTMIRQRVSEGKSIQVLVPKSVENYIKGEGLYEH

[18] = target: T4, Probable nicotinate-nucleotide adenylyltransferase; assay type: functional, Staphylococcus aureus subsp. aureus N315; conditions: read-out: IC50_Mean

Sequence of Luciferin 4-monooxygenase (P08659 whole entry): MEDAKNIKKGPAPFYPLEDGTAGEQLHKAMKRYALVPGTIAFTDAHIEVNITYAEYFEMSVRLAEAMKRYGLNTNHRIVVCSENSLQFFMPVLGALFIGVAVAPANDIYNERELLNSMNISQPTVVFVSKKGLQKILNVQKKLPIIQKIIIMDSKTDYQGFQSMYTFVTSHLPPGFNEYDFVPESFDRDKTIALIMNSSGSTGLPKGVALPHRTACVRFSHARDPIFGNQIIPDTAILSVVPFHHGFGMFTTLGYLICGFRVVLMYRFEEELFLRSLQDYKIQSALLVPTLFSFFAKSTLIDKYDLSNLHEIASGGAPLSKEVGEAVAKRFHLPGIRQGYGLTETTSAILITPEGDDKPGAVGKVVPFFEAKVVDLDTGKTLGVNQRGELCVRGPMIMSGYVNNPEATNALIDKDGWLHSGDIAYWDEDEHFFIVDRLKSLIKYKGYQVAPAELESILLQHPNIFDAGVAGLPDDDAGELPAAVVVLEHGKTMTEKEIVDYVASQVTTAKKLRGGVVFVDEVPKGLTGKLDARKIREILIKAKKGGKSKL

C=CCNc1ncnc2c1cnn2-c1ccc(OC)cc1
EC50 [1]: 0.33 µM (active) | EC50 [2]: > 50 µM (not active)

COC(=O)c1ccccc1C1c2ccc(O)c(O)c2OC2=C(O)C(=O)C=CC21 (stereo not drawn)
IC50 [3]: > 50 µM (not active)

N#C/C(=C/c1ccc(N2CCCCCC2)o1)c1ccc(Cl)cc1
CC50 [4]: 16.9 µM (active) | CC50 [5]: > 99 µM (not active) | IC50 [6]: 4.77 µM (active) | IC50 [7]: > 50 µM (inactive) | EC50 [8]: 1.81 µM (active) | EC50 [9]: > 60 µM (inconclusive) | AC50 [10]: 20.4 µM (active) | AC50 [11]: 8.91 µM (active)

Cc1ccnc(NS(=O)(=O)c2cc(C(F)(F)F)ccc2Cl)c1
EC50 [12]: > 55.7 µM (not active) | EC50 [13]: > 55.7 µM (not active)

Cc1cc(Br)ccc1SCC(=O)OCC(=O)NCc1ccco1
IC50 [14]: 2.93 µM (active) | IC50 [15]: 9.37 µM (active)

COCc1cc(O)n2nc(-c3ccsc3-n3c(C)ccc3C)cc2n1
EC50 [16]: > 100 µM (not active) | IC50 [17]: 13.3 µM (active) | IC50 [18]: 51.3 µM (active)
